Patent publication US6472348B1, “Pyridone derivatives and herbicides” (Kumiai Chemical Industry Co., Ltd., priority 1996, dated 2002)

Key:
Type in all cases: in vivo
barnyardgrass (Ec) [1] = assay: Test Example 1: herbicidal effects by paddy field soil treatment; settings: 100 g of the active ingredient per 10 ares, 21st day after the application, index 0-5 of Table 47;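 also: grade of growth control; 5 = at least 90%; 4 = 70 to 90%; 3 = 50 to 70%; 2 = 30 to 50%; 1 = 10 to 30%; 0 = under 10%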
Summary of the method: (§1)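 Scoring of herbicidal effect came 21 days after application of 100 g active ingredient per 10 ares to flooded (3 cm) paddy-soil pots sown with barnyardgrass, monochoria and bulrush, kept in a greenhouse.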

bulrush (Sc) = assay: as above; settings: 100 g of the active ingredient per 10 ares, 21st day after the application, index 0-5 of Table 47;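 also: grade of growth control; 5 = at least 90%; 4 = 70 to 90%; 3 = 50 to 70%; 2 = 30 to 50%; 1 = 10 to 30%; 0 = under 10%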
Summary of the method: as §1

monochoria (Mo) = assay: as above; settings: 100 g of the active ingredient per 10 ares, 21st day after the application, index 0-5 of Table 47;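 also: grade of growth control; 5 = at least 90%; 4 = 70 to 90%; 3 = 50 to 70%; 2 = 30 to 50%; 1 = 10 to 30%; 0 = under 10%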
Summary of the method: as §1

Digitaria ciliaris (Di) = assay: Test Example 2: herbicidal effects by upland field soil treatment; settings: 100 g of the active ingredient per 10 ares;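 also: grade of growth control; 5 = at least 90%; 4 = 70 to 90%; 3 = 50 to 70%; 2 = 30 to 50%; 1 = 10 to 30%; 0 = under 10%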
Description: (§2) (Test on Herbicidal Effects by Upland Field Soil Treatment)

barnyardgrass (Ec) [2] = assay: as above; settings: 100 g of the active ingredient per 10 ares
Description: as §2

[3] = tested on: common lambsquarters (Ch); assay: as above; settings: 100 g of the active ingredient per 10 ares
Description: as §2

pale smartweed (Po) [4] = assay: as above; settings: 100 g of the active ingredient per 10 ares
Description: as §2

rice flatsedge (Ci) [5] = assay: as above; settings: 100 g of the active ingredient per 10 ares
Description: as §2

slender amaranth (Am) [6] = assay: as above; settings: 100 g of the active ingredient per 10 ares
Description: as §2

Diaitaria ciliaris (Di) = assay: Test Example 3: herbicidal effects by upland field foliage treatment; set-up: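 grade of growth control; 5 = at least 90%; 4 = 70 to 90%; 3 = 50 to 70%; 2 = 30 to 50%; 1 = 10 to 30%; 0 = under 10%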
Summary of the method: (§3)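 Using plants cultured for 2 weeks in a greenhouse from seed sown in soil-covered sand (pots 120 cm^2), the compounds were applied to foliage, and weed control was graded by standard criteria 14 days thereafter.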

barnyardgrass (Ec) [7] = assay: as above; set-up: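 grade of growth control; 5 = at least 90%; 4 = 70 to 90%; 3 = 50 to 70%; 2 = 30 to 50%; 1 = 10 to 30%; 0 = under 10%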
Summary of the method: as §3

[8] = tested on: common lambsquarters (Ch); assay: as above; set-up: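 grade of growth control; 5 = at least 90%; 4 = 70 to 90%; 3 = 50 to 70%; 2 = 30 to 50%; 1 = 10 to 30%; 0 = under 10%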
Summary of the method: as §3

pale smartweed (Po) [9] = assay: as above; set-up: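 grade of growth control; 5 = at least 90%; 4 = 70 to 90%; 3 = 50 to 70%; 2 = 30 to 50%; 1 = 10 to 30%; 0 = under 10%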
Summary of the method: as §3

rice flatsedge (Ci) [10] = assay: as above; set-up: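 grade of growth control; 5 = at least 90%; 4 = 70 to 90%; 3 = 50 to 70%; 2 = 30 to 50%; 1 = 10 to 30%; 0 = under 10%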
Summary of the method: as §3

slender amaranth (Am) [11] = assay: as above; set-up: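 grade of growth control; 5 = at least 90%; 4 = 70 to 90%; 3 = 50 to 70%; 2 = 30 to 50%; 1 = 10 to 30%; 0 = under 10%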
Summary of the method: as §3

[12] = evaluated on the 21st day after application
[13] = 100 g active ingredient per 10 ares, evaluated 14th day after treatment
[14] = 21st day after the application, index 0-5 of Table 47
[15] = 100 g of the active ingredient per 10 ares, evaluated on the 14th day after treatment

SMILES | Herbicidal effects Ec (barnyardgrass (Ec) [1]) | Herbicidal effects Sc (bulrush (Sc)) | Herbicidal effects Mo (monochoria (Mo)) | Herbicidal effects Di (Digitaria ciliaris (Di); [12]) | Herbicidal effects Ec (barnyardgrass (Ec) [2]; [12]) | Herbicidal effects Ch [3, 12] | Herbicidal effects Po (pale smartweed (Po) [4]; [12]) | Herbicidal effects Ci (rice flatsedge (Ci) [5]; [12]) | Herbicidal effects Am (slender amaranth (Am) [6]; [12]) | Herbicidal effects Di (Diaitaria ciliaris (Di); [13]) | Herbicidal effects Ec (barnyardgrass (Ec) [7]; [13]) | Herbicidal effects Ch [8, 13] | Herbicidal effects Po (pale smartweed (Po) [9]; [13]) | Herbicidal effects Ci (rice flatsedge (Ci) [10]; [13]) | Herbicidal effects Am (slender amaranth (Am) [11]; [13]) | other results
C#CC(CC)Oc1cc(Cl)cc(F)c1-c1ccc(C(F)(F)F)n(C)c1=O (stereo not drawn) [1′-6] | 5 | 5 | 5 | 5 | 5 | 5 | 5 | 5 | 5 | 5 | 5 | 5 | 5 | 5 | 5 | 
C#CCN1C(=O)COc2ccc(-c3ccc(C(F)(F)F)n(C)c3=O)cc21 [2-29] | 5 | 5 | 5 | 5 | 5 | 5 | 5 | 5 | 5 | 5 | 5 | 5 | 5 | 5 | 5 | 
CC(=O)c1cc(-c2ccc(C(F)(F)F)n(C)c2=O)c(F)cc1Cl [Compound 1-190] | 5 | 5 | 5 | 5 | 5 | 5 | 5 | 5 | 5 | 5 | 5 | 5 | 5 | 5 | 5 | 
CC(C)C(O)c1cc(-c2ccc(C(F)(F)F)n(C)c2=O)c(F)cc1Cl (stereo not drawn) [Compound 1-195] | 5 | 5 | 5 | 5 | 5 | 5 | 5 | 5 | 5 | 5 | 5 | 5 | 5 | 5 | 5 | 
CCOCOc1cc(-c2ccc(C(F)(F)F)n(C)c2=O)c(Cl)cc1Cl [Compound 1-206] | 5 | 5 | 5 | 5 | 5 | 5 | 5 | 5 | 5 | 5 | 5 | 5 | 5 | 5 | 5 | 
C#CCNC(=O)COc1cc(-c2ccc(C(F)(F)F)n(C)c2=O)c(F)cc1Cl [Compound 1-210] | 5 | 5 | 5 | 4 | 5 | 5 | 5 | 5 | 5 | 5 | 4 | 5 | 5 | 5 | 5 | 
COCCOc1cc(-c2ccc(C(F)(F)F)n(C)c2=O)c(Cl)cc1Cl [Compound 1-211] | 5 | 5 | 5 | 5 | 5 | 5 | 5 | 5 | 5 | 5 | 4 | 5 | 5 | 5 | 5 | 
CNS(=O)(=O)c1cc(-c2ccc(C(F)(F)F)n(C)c2=O)c(Cl)cc1Cl [Compound 1-256] | 5 | 5 | 5 | 5 | 5 | 5 | 5 | 5 | 5 | 5 | 5 | 5 | 5 | 5 | 5 | 
C=C(C)CN1C(=O)COc2cc(F)c(-c3ccc(C(F)(F)F)n(C)c3=O)cc21 [Compound 2-11] | 5 | 5 | 5 | 5 | 5 | 5 | 5 | 5 | 5 | 5 | 5 | 5 | 5 | 5 | 5 | 
CC=CCN1C(=O)COc2cc(F)c(-c3ccc(C(F)(F)F)n(C)c3=O)cc21 [Compound 2-12] | 5 | 5 | 5 | 5 | 5 | 5 | 5 | 5 | 5 | 5 | 5 | 5 | 5 | 5 | 5 | 
C=C(Cl)CN1C(=O)COc2cc(F)c(-c3ccc(C(F)(F)F)n(C)c3=O)cc21 [Compound 2-13] | 5 | 5 | 5 | 5 | 5 | 5 | 5 | 5 | 5 | 5 | 5 | 5 | 5 | 5 | 5 | 
CN1C(=O)COc2cc(F)c(-c3ccc(C(F)(F)F)n(C)c3=O)cc21 [Compound 2-16] | 5 | 5 | 5 | 5 | 5 | 5 | 5 | 5 | 5 | 5 | 5 | 5 | 5 | 5 | 5 | 
Cc1cc2c(-c3ccc(C(F)(F)F)n(C)c3=O)c(Cl)cc(Cl)c2o1 [Compound 4-10] | 5 | 5 | 5 | 5 | 5 | 5 | 5 | 5 | 5 | 5 | 5 | 5 | 5 | 5 | 5 | 
Cn1c(C(F)(F)F)ccc(-c2c(Cl)cc(Cl)c3oc(CBr)cc23)c1=O [Compound 4-16] | 5 | 5 | 5 | 5 | 5 | 5 | 5 | 5 | 5 | 5 | 5 | 5 | 5 | 5 | 5 | 
Cc1cc2c(-c3ccc(C(F)(F)F)n(C)c3=O)ccc(Cl)c2o1 [Compound 4-24] | 5 | 5 | 5 | 5 | 4 | 5 | 5 | 5 | 5 | 5 | 4 | 5 | 5 | 5 | 5 | 
Cn1c(C(F)(F)F)ccc(-c2c(Cl)cc(Cl)c3oc(C(Br)Br)cc23)c1=O [Compound 4-29] | 5 | 5 | 5 | 5 | 5 | 5 | 5 | 5 | 5 | 5 | 5 | 5 | 5 | 5 | 5 | 
CCOCc1cc2c(-c3ccc(C(F)(F)F)n(C)c3=O)c(F)cc(Cl)c2o1 [Compound 4-31] | 5 | 5 | 5 | 5 | 5 | 5 | 5 | 5 | 5 | 5 | 5 | 5 | 5 | 5 | 5 | 
C=CCOc1cc(-c2cn(C)c(C(F)(F)F)cc2=O)c(F)cc1Cl [Compound 6-8] | 5 | 5 | 5 | 5 | 5 | 5 | 5 | 5 | 5 | 5 | 5 | 5 | 5 | 5 | 5 | 
Cc1cc(-c2ccc(Cl)cc2Cl)c(=O)n(C)c1C(F)(F)F [Compound No. 1-11] | 5 | 5 | 5 |  |  |  |  |  |  |  |  |  |  |  |  | Herbicidal effects Di (Digitaria ciliaris (Di); [14]): 5; Herbicidal effects Ec (barnyardgrass (Ec) [2]; [14]): 5; Herbicidal effects Ch [3, 14]: 5; Herbicidal effects Po (pale smartweed (Po) [4]; [14]): 5; Herbicidal effects Ci (rice flatsedge (Ci) [5]; [14]): 5; Herbicidal effects Am (slender amaranth (Am) [6]; [14]): 5; Herbicidal effects Di (Diaitaria ciliaris (Di); [15]): 5; Herbicidal effects Ec (barnyardgrass (Ec) [7]; [15]): 5; Herbicidal effects Ch [8, 15]: 5; Herbicidal effects Po (pale smartweed (Po) [9]; [15]): 5; Herbicidal effects Ci (rice flatsedge (Ci) [10]; [15]): 5; Herbicidal effects Am (slender amaranth (Am) [11]; [15]): 5
